Active and inactive are the calls of the source.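 The calls were made as follows: active = half-maximal concentration for changing protein binding to DNA, from the fitted dose curve, below 10 micromolar; inactive = the rest.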

In this experiment the target is Nuclear receptor subfamily 1 group D member 1 (Homo sapiens) (UniProt P20393). Description: modulators of Rev-erb alpha DNA binding, dose response, biochemical, FITC-DNA, fluorescence polarization (AID 1259321).
Chain of Nuclear receptor subfamily 1 group D member 1 (Homo sapiens) (P20393 whole entry, looked up): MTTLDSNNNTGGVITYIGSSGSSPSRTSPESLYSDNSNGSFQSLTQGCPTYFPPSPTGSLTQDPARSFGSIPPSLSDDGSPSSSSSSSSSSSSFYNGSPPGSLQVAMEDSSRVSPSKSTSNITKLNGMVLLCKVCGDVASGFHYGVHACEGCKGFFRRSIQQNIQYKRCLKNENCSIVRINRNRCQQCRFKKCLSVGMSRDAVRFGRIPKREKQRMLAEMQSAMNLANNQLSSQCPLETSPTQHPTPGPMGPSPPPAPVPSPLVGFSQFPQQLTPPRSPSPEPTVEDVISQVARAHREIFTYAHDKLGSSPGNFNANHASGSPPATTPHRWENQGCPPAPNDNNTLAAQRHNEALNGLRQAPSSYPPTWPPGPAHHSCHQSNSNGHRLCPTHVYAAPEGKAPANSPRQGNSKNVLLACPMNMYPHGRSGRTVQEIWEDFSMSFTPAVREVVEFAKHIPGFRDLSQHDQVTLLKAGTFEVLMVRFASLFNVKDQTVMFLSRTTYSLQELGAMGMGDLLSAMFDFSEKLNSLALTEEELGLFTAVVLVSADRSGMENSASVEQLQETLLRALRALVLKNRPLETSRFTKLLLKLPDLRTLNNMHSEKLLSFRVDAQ

For the molecule `CCN(CC)C(=O)CSc1nc(C)cc(-c2cccs2)c1C#N`, the IC50 is 5.91 µM.
The result for `CC(=O)c1ccc(N2CCN(c3ccc4cc(S(=O)(=O)N5CCC(C)CC5)ccc4n3)CC2)cc1` reads 8.62 µM; that for `N#CC(C#N)=C1C=C2C=C(N3CCOCC3)CCC2CC1` (configuration not stated), 4.31 µM; that for `Cc1ccc(C)c(Nc2nc3c(S(=O)(=O)c4ccccc4)nnn3c3ccccc23)c1`, 8.48 µM.
In the case of `Cc1ccc2[nH]cc(S(=O)(=O)c3ccc(C)c(C)c3)c(=O)c2c1` it was > 40 µM (inactive); in that of `COc1ccccc1NC(=O)CSc1nc(N)c(C#N)cc1C#N`, “inactive”; in that of `CN1C(=O)c2cc(NC(=O)Nc3ccccc3F)ccc2OC[C@H]2O[C@@H](CC(=O)NCc3ccc(-c4ccccc4)cc3)CC[C@@H]21`, 3.55 µM.
As to `O=C(N=c1ccn(-c2nc3ccccc3nc2NS(=O)(=O)c2ccccc2)cc1)c1cccs1`, the IC50 result is “inactive”.
The result for `COc1ccc2cc(C)c(SCC(=O)Nc3cc(C)on3)nc2c1` reads > 40 µM (inactive); that for `COc1cc2c(cc1OC)-c1cc3ccc4c(c3c[n+]1CC2)OCO4`, “inactive”.
In the case of `O=C(CSc1nnc(-c2cccs2)n1-c1cccc(Cl)c1)c1cccc2c1OCCO2` it was 2.25 µM; in that of `O=C(Nc1ccnc(-c2cccnc2)n1)c1ccc(Cl)cc1`, 5.12 µM.
In the case of `COc1cc(C(=O)Nc2nc(-c3cc(C)ccc3C)c(C)s2)ccc1OCC(=O)Nc1ccc(F)cc1` it was “inactive”; in that of `COc1ccc(Cn2ccc3ccc(-c4ccc5ccn(C(=O)c6cccc(OC)c6)c5c4)cc32)cc1`, > 40 µM (inactive).
Regarding `Cc1ccc(/C=C/c2ccc(N(C)C)cc2)[n+](C)c1`, the IC50 is 9.09 µM.
The result for `CC1(Cc2ccccc2C#N)C(=O)Nc2ccc(-c3ccccc3)cc21` (configuration not stated) reads 6.27 µM.
The result for `CC(C)CCSc1nc(N)c(C#N)cc1C#N` reads 2.17 µM; that for `COC(=O)c1cccc(Cn2ccc3ccc(-c4ccc5ccn(C(=O)c6ccccc6OC)c5c4)cc32)c1`, 0.91 µM; that for `COc1ccc(-c2cc(C(F)(F)F)c(C#N)c(SCC(=O)Nc3nc(C)co3)n2)cc1`, 3.59 µM.
In the case of `COc1ccc(C)cc1NC(=O)c1cc2c(=O)n3ccccc3nc2n1C` it was 3.91 µM.
As to `COc1ccc(C(=O)/C(C#N)=N/Nc2ccc([N+](=O)[O-])cc2)cc1`, the IC50 is > 40 µM (inactive).
On to `Cc1cccc2cc(C#N)c(SCC#N)nc12`, for which the IC50 was > 40 µM (inactive).
The result for `Cc1nc(NCCc2ccc(Cl)cc2)c2nnn(Cc3ccccc3)c2n1` reads 1.91 µM.
Regarding `Nc1ccc2ccc3cccc[n+]3c2c1`, the IC50 was 8.15 µM.
`COc1ccc2nc(SCc3cccnc3)c(C#N)cc2c1`: the IC50 was 2.51 µM.
In the case of `COc1ccc(Oc2c(Cl)cnn(CC(=O)C(c3ccccc3)c3ccccc3)c2=O)cc1` it was 0.779 µM; in that of `Cc1cc(C(C)c2ccccc2)c(O)c(CN2CCOCC2)c1C` (configuration not stated), “inactive”; in that of `Oc1ccccc1N=Nc1nc(-c2ccccc2)c(-c2ccccc2)[nH]1`, 3.98 µM.
In the case of `COc1ccc2[nH]c(C(=O)Nc3ccc(C)c(F)c3)cc2c1`, the IC50 was 0.647 µM.
Regarding `Cc1nc(SCc2nc3ccccc3[nH]2)c2oc3cc(Br)ccc3c2n1`, the IC50 was 9.38 µM.
On to `CN(C)c1ccc(C=C2SC(=S)NC2=O)cc1`, for which the IC50 result is “inactive”.
The result for `CCOc1ccc(-c2nnc3ccc(SCC(=O)Nc4nc5ccc(C)cc5s4)nn23)cc1` reads 7.12 µM; that for `CN1/C(=C\C=C2/C(=O)Oc3ccccc3C2=O)C(C)(C)c2ccccc21`, 4.74 µM.
In the case of `CCCCCCNC(=O)C(C#N)c1nc2ccccc2nc1N1CCOCC1` (configuration not stated) it was > 40 µM (inactive); in that of `CCc1ccc(-c2nc(NC(=O)c3ccc(OCC(=O)Nc4ccc(F)cc4)c(OC)c3)sc2C)cc1`, 9.3 µM.
The result for `C=CCn1c(C)c(/C=C/c2cc[n+](C)cc2)c2ccccc21` reads 9.96 µM; that for `Cc1nc2cc(NC(=O)CSc3nc4c(C)cccc4cc3C#N)ccc2s1`, 5.93 µM.
With `CCn1c(=O)cc(SCC(=O)Nc2ccc(Cl)cc2)c2ccccc21`, the IC50 is 5.59 µM.
Consider `CCOC(=O)C1CCCN(c2ccc([N+](=O)[O-])c3nonc23)C1` (configuration not stated), for which the IC50 is > 40 µM (inactive).
In the case of `O=C(Nc1nc(-c2ccccc2)c(C(=O)c2ccccc2)s1)c1ccc(S(=O)(=O)N2CCCCC2)cc1` it was 0.541 µM; in that of `COc1ccc2[nH]cc(/C=C/c3cc[n+](C)cc3)c2c1`, 5.25 µM.
The result for `COc1ccc(NC(=O)COC(=O)c2ccc3c(c2)OCO3)c(OC)c1` reads > 40 µM (inactive).
The result for `COCCN(Cc1cc2cc(C)ccc2n2nnnc12)C(=S)Nc1ccc(C)cc1` reads “inactive”; that for `Nc1c2c(nc3ccccc13)CCN(Cc1ccccc1)C2`, “inactive”.
In the case of `CCc1nnc(NC(=O)CSc2nc3cc4c(cc3cc2C)OCCO4)s1`, the IC50 was 7.62 µM.
In the case of `CCC(=O)c1ccc(N2CCN(S(=O)(=O)c3ccccc3)CC2)c(F)c1` it was 2.96 µM; in that of `COc1ccc2nc(SCC(=O)Nc3ccc4sc(C)nc4c3)c(C#N)cc2c1`, 1.98 µM.
The result for `C=CCn1c(SCCNC(C)=O)nc2cc(-c3ccccc3)sc2c1=O` reads “inactive”.
In the case of `CC1CCN(Cc2cc(=O)oc3ccc(C(C)C)cc23)CC1` it was 9.88 µM.
`COc1cc(/C=N/NC(=O)c2c(C)nc3ccc(Cl)cn23)cc(OC)c1OC`: the IC50 is > 40 µM (inactive).
The result for `CCCCCCc1cc2cc(C(=O)Nc3ccccc3)c(=O)oc2cc1O` reads > 40 µM (inactive).
The result for `O=C(CSc1ncnc2c1oc1ccccc12)c1cccs1` reads 6.36 µM; that for `Cc1cccc(-c2nnn3c2nc(NCCc2ccc(S(N)(=O)=O)cc2)c2ccccc23)c1`, > 40 µM (inactive); that for `Cc1ccc(-c2nn(C)c(=O)c3ccccc23)cc1S(=O)(=O)N1CCCC1`, > 40 µM (inactive).
For the molecule `O=[N+]([O-])c1cc(-c2cnc3ccccc3n2)ccc1Cl`, the IC50 was 3.68 µM.
The result for `CCc1nnc(NC(=O)CSc2nc3cc4c(cc3cc2CC)OCCO4)s1` reads 3.66 µM; that for `O=C(CSc1nc2ccccc2c(=O)n1-c1ccc(F)cc1)Nc1cc(S(=O)(=O)N2CCOCC2)ccc1Cl`, > 40 µM (inactive).
In the case of `CCN1C(=O)CSC1=NC12CC3CC(CC(C3)C1)C2` it was > 40 µM (inactive); in that of `CC(C)Nc1nc(-c2cccnc2)nc(-c2ccc(Cl)cc2)c1C#N`, > 40 µM (inactive); in that of `Cc1cccc2cc(C(c3nnnn3Cc3ccccc3)N3CCN(c4ccccc4)CC3)c(=O)[nH]c12` (configuration not stated), 7.94 µM.
In the case of `O=[N+]([O-])c1ccc(O)c(-c2cc(C(F)(F)F)nc(-c3ccccc3)n2)c1` it was > 40 µM (inactive).
On to `COc1ccc(-c2cc(-c3ccccc3)nc(SCC(=O)Nc3nccs3)c2C#N)cc1`, for which the IC50 was > 40 µM (inactive).
In the case of `CCOc1ccc2nc(SCC(=O)N3c4ccccc4Sc4ccccc43)c(C#N)cc2c1` it was 6.88 µM; in that of `CC[n+]1c(/C=C/c2c[nH]c3ccccc23)ccc2cc(C)ccc21`, “inactive”; in that of `CC(=O)c1ccc(S(=O)(=O)N2CCN(c3nc4c(C)c(C)ccc4cc3C#N)CC2)cc1`, 4.57 µM.
In the case of `COc1ccc(C(=O)Nc2nc(C)c(C(C)=O)s2)cc1S(=O)(=O)N1CCOCC1` it was > 40 µM (inactive).
The result for `Cc1cccc2cc(C#N)c(SCC(=O)NCc3cccs3)nc12` reads 9.79 µM.
`COc1ccc(CC(=O)Nc2ccc(-c3noc(-c4ccccc4OC)n3)cc2)cc1`: the IC50 is 4.17 µM.
The result for `COc1ccccc1NC(=O)c1sc2ncn(Cc3cccc(C)c3)c(=O)c2c1C` reads 0.38 µM; that for `Cc1c(-c2ccc(Cl)cc2)oc(=O)c2c(N)n(-c3ccccc3)nc12`, 3.98 µM; that for `COc1ccc(C(=O)Nc2scc(-c3ccc(Cl)cc3Cl)c2C(N)=O)cc1`, “inactive”.
The result for `CCN(CC)c1ccc2cc(C=O)c(=O)oc2c1` reads > 40 µM (inactive).
In the case of `COc1cc2c3nnc(-c4ccc(F)cc4)c-3cn(Cc3ccccc3)c2cc1OC` it was “inactive”; in that of `O=C(CCc1c[nH]c2ccccc12)NCCc1ccc(Cl)cc1`, > 40 µM (inactive); in that of `Cc1onc(-c2ccccc2)c1C(=O)Nc1nc(-c2cc(F)ccc2F)cs1`, 4.24 µM.
For `CC(=O)c1sc(NC(=O)c2oc3ccc(F)cc3c2C)nc1C`, the IC50 is 8.25 µM.
As to `O=C(Nc1nnc(C2CCCCC2)s1)c1ccc(Br)s1`, the IC50 entry is “inactive”.
The result for `COc1ccc(Cn2ccc3ccc(-c4ccc5ccn(C(=O)c6ccccc6OC)c5c4)cc32)cc1` reads > 40 µM (inactive); that for `CCc1cc2c(C)ccc(C)c2nc1SCC(=O)Nc1c[nH]c(=O)[nH]c1=O`, “inactive”; that for `Cc1cccc(N2C(=O)c3cccc4c(N)ccc(c34)C2=O)c1`, 6.19 µM.
In the case of `CCCCOC(=O)c1cc(C)nc2ccc(Br)cc12` it was “inactive”; in that of `COc1cc2c(cc1OC)CN(C(=O)CSc1nc(N)c(C#N)cc1C#N)CC2`, “inactive”; in that of `Cc1cc2cc(C#N)c(SCC(=O)Nc3nonc3C)nc2cc1C`, 1.33 µM.
As to `CCOc1ccccc1CNC(=O)C1CCN(c2nnc(C)c3c(C)n(-c4ccc(C)cc4)nc23)CC1`, the IC50 is > 40 µM (inactive).
The result for `O=C(Nc1ccc(O)c(-c2nc3ccccc3s2)c1)c1cccs1` reads 3.03 µM.
The result for `COc1ccc(NC(=O)/C(C#N)=C\c2ccc(N3CCOCC3)o2)cc1` reads > 40 µM (inactive); that for `N#Cc1ccccc1Sc1ccccc1C(=O)OCC(=O)NC1CCCCC1`, “inactive”.
In the case of `CN1/C(=C\C=C2C(=O)NC(=S)NC2=O)C(C)(C)c2ccccc21` it was 6.96 µM.
On to `COc1ccc(-c2nnc(NC(=O)C(C)C)s2)c(OC)c1`, for which the IC50 result was “inactive”.
The result for `CCC(=O)c1cn(CC(=O)Nc2ccc(C)cc2C)c2ccccc12` reads 1.36 µM.
The result for `COc1ccccc1-c1nc(SCC(=O)Nc2cc(C)on2)c2c(=O)n(C)c(=O)n(C)c2n1` reads 5.36 µM; that for `O=C(/C=C/c1cccc2ccccc12)NCCC1=CCCCC1`, > 40 µM (inactive).
